Source: PMC13114161 (Antibiotics, 2026)
Like-named read-outs stand apart in the source and are kept apart here.

How the values were obtained:
P. aeruginosa ATCC 27853 [1] = test: MIC and levofloxacin potentiation (broth microdilution); format: cell-based, Pseudomonas aeruginosa; conditions: for MIC: Pseudomonas aeruginosa, ATCC27853
[2] = system: P. aeruginosa CDC AR-0232, AR-0248, AR-0249; format: cell-based, Pseudomonas aeruginosa
Method: Frequency-of-resistance studies were carried out as described previously.

[3] = system: P. aeruginosa DA7232 (gyrA-T83I, parC-S80L); test: Levofloxacin MIC potentiation; format: cell-based, Pseudomonas aeruginosa; conditions: DA7232; […] TXA11114
Method: (§1) MIC assays for potentiation of antimicrobial activity against P. aeruginosa were performed as described previously.

Maximum tolerated dose = conditions: female, CD-1, mouse, iv
Method: Thus, the safety and tolerability of TXA11114 was determined to find an optimum dosing capability. The maximum tolerated dose (MTD) of TXA11114 was assessed in female mice (CD-1, 6–8 weeks old) at the University of North Texas Health Science Center (UNTHSC). TXA11114 was administered IV to groups of three female mice. Mice were administered TXA11114 in the range 30–240 mg/kg (IV bolus). […] As doses are tolerated (not resulting in effects such as mortality, convulsions, or other severe morbidity), they are increased. Survival and general observations as to the tolerability of the administered dose started immediately and continued for a period of 48 h after each dose was recorded.

P. aeruginosa ATCC 27853 [4] = test: Neutropenic murine thigh infection model; format: in vivo, CD-1 mice
Method: Female CD-1 mice (6–8 weeks old; 22 ± 2 g) were obtained from Envigo Laboratories, quarantined for at least 3 days, and housed 5 per cage in accordance with the approved IACUC protocol (IACUC-2017-0049). Neutropenia was induced by intraperitoneal (IP) administration of cyclophosphamide (Cytoxan) at 150 mg/kg on day 4 and 100 mg/kg on day 1 prior to infection.
Mice were infected intramuscularly (IM) in the right thigh with 0.1 mL of bacterial suspension containing approximately 1 × 10^5–10^6 CFU/mL. […] At 2 h or 24 h post-infection, mice were euthanized by CO2 asphyxiation, and thighs were aseptically excised and placed in 2 mL sterile phosphate-buffered saline (PBS) on ice. Tissue homogenization was performed using a Polytron PT10-35 (12 mm aggregate, Kinematica, Malters, Switzerland).
Plates were incubated overnight at 37 °C, and colonies were enumerated the following day.

[5] = system: multidrug-resistant P. aeruginosa clinical isolates from the CDC-FDA; test: Levofloxacin MIC potentiation, CDC-FDA isolates; format: cell-based, Pseudomonas aeruginosa; conditions: for Levofloxacin MIC fold difference, +EPI / Levofloxacin MIC, +EPI: EPI […] (TXA11114, TXA09155) or 50 μg/mL (MC-04,124, PAβN)
Method: In a comparative study, the levofloxacin-potentiating activity of TXA11114 was evaluated alongside the well-characterized EPIs PAβN and MC-04,124 using P. aeruginosa clinical isolates obtained from the CDC and FDA Antimicrobial Resistance Isolate Bank and the Walter Reed Army Institute of Research (WRAIR). […] While PAβN has been widely studied in laboratory strains, its activity against the CDC/FDA P. aeruginosa panel has been reported only sparingly, limiting direct cross-study comparisons.
as §1

[6] = system: multidrug-resistant P. aeruginosa clinical isolates from Walter Reed Army Hospital; test: Levofloxacin MIC potentiation, WRAIR MRSN isolates; format: cell-based, Pseudomonas aeruginosa
Method: as §1

[7] = system: P. aeruginosa ATCC 27853 ompH mutants EPIR32, EPIR36, EPIR38; test: microbe, parasite or virus in culture; format: cell-based, Pseudomonas aeruginosa
Method: as §1

[8] = +24 hr, TXA11114 30 mg/kg IV QID alone
[9] = combined CDC/FDA and WRAIR MDR isolate sets

SMILES: NCC(F)C[C@@H](N)CNC(=O)c1cc2ccc(-c3ccc(F)cc3)cc2[nH]1 (stereo partly drawn) [TXA11114, N-((2R)-2,5-diamino-4-fluoropentyl)-6-(4-fluorophenyl)-1H-indole-2-carboxamide]
- Fold MIC reduction [LVX/EPI-LVX] (P. aeruginosa ATCC 27853 [1]; EPI at […], ATCC 27853): 8 fold
- MIC (P. aeruginosa ATCC 27853 [1]; ATCC 27853 parent strain (Table S1), read-out: MIC): 100 µg/mL
- MIC (P. aeruginosa ATCC 27853 [1]; EPI alone, ATCC 27853, read-out: EPI MIC): 100 µg/mL
- LVX MIC (+EPI) (P. aeruginosa ATCC 27853 [1]; levofloxacin MIC with EPI at […], ATCC 27853): 0.125 µg/mL
- Frequency of Resistance [2]: <1.00 × 10^−10
- Frequency of Resistance ([2]; CDC AR-0248, levofloxacin 4× MIC (64 μg/mL) + TXA11114 […]): <1.47 × 10^−10
- Frequency of Resistance ([2]; CDC AR-0249, levofloxacin 4× MIC (256 μg/mL) + TXA11114 […]): <8.77 × 10^−11
- Levofloxacin MIC in presence of TXA11114 [3]: 1 µg/mL
- MTD at 48 h (Maximum tolerated dose; in vivo, Maximum tolerated dose (MTD), mice, IV bolus for TXA11114): < 90 mg/kg
- MTD at 48 h (Maximum tolerated dose): > 60 mg/kg
- Effect of EPI alone on bacterial burden, thigh (P. aeruginosa ATCC 27853 [4]; 30 mg/kg, IV, QID): had no impact on bacterial burden
- Mean Log10 CFU (thigh) (P. aeruginosa ATCC 27853 [4]; [8]): 8.95 log10 CFU
- Mean Log10 CFU Change vs +2 hr Control, Δlog10 (treatment-baseline), thigh (P. aeruginosa ATCC 27853 [4]; [8]): 2.87 log10 CFU
- Mean Log10 CFU Change vs +24 hr Control, thigh (P. aeruginosa ATCC 27853 [4]; TXA11114 30 mg/kg IV QID alone): 0.13 log10 CFU
- CFU reduction by combination, exceeding levofloxacin alone (P. aeruginosa ATCC 27853 [4]; murine thigh and lung infection models): > 1 log10 CFU
- Levofloxacin MIC fold difference, +EPI ([5]; AR-0229): 32 fold
- Levofloxacin MIC, +EPI ([5]; AR-0229): 2 µg/mL
- Levofloxacin MIC fold difference, +EPI ([5]; AR-0232): 16 fold
- Levofloxacin MIC, +EPI ([5]; AR-0232): 0.5 µg/mL
- Levofloxacin MIC fold difference, +EPI ([5]; AR-0233): 8 fold
- Levofloxacin MIC, +EPI ([5]; AR-0233): 0.5 µg/mL
- Levofloxacin MIC fold difference, +EPI ([5]; AR-0234): 32 fold
- Levofloxacin MIC, +EPI ([5]; AR-0234): 0.25 µg/mL
- Levofloxacin MIC fold difference, +EPI ([5]; AR-0239): 4 fold
- Levofloxacin MIC, +EPI ([5]; AR-0239): 8 µg/mL
- Levofloxacin MIC fold difference, +EPI ([5]; AR-0242): 4 fold
- Levofloxacin MIC, +EPI ([5]; AR-0242): 2 µg/mL
- Levofloxacin MIC fold difference, +EPI ([5]; AR-0244): 8, (8) fold
- Levofloxacin MIC, +EPI ([5]; AR-0244): 8, (8) μg/mL
- Levofloxacin MIC fold difference, +EPI ([5]; AR-0246): 8, (8) fold
- Levofloxacin MIC, +EPI ([5]; AR-0246): 8, (8) μg/mL
- Levofloxacin MIC fold difference, +EPI ([5]; AR-0248): 8 fold
- Levofloxacin MIC, +EPI ([5]; AR-0248): 2 µg/mL
- Levofloxacin MIC fold difference, +EPI ([5]; AR-0249): 16 fold
- Levofloxacin MIC, +EPI ([5]; AR-0249): 4 µg/mL
- Levofloxacin MIC fold difference, +EPI ([5]; AR-0252): 8 fold
- Levofloxacin MIC, +EPI ([5]; AR-0252): 4 µg/mL
- Levofloxacin MIC fold difference, +EPI ([5]; AR-0253): 16 fold
- Levofloxacin MIC, +EPI ([5]; AR-0253): 0.125 µg/mL
- Levofloxacin MIC fold difference, +EPI ([5]; AR-0264): 16 fold
- Levofloxacin MIC, +EPI ([5]; AR-0264): 4 µg/mL
- Share of CDC isolates with levofloxacin MIC reduced ≥8-fold (potentiated) ([5]; TXA11114 […], PAβN and MC-04,124 50 µg/mL): approximately 85%
- Share of isolates in which levofloxacin was potentiated [5, 9]: > 90%
- Share of strains restored to levofloxacin susceptibility at or below EUCAST breakpoint (≤2 μg/mL) [5, 9]: approximately 60%
- Reductions in levofloxacin MIC values in many strains ([5]; diverse MDR clinical isolates): 4- to 32 fold
- Levofloxacin MIC reductions across panel ([6]; 20 MRSN isolates, + TXA11114 […]): 2- to 32 fold
- Share of isolates shifted to levofloxacin susceptibility ([6]; 20 highly MDR MRSN isolates, + TXA11114): 65%
- Levofloxacin MIC fold difference, +TXA11114 ([6]; MRSN #994): 8 fold
- Levofloxacin MIC, +TXA11114 ([6]; MRSN #994): 2 µg/mL
- Levofloxacin MIC, +TXA11114 ([6]; MRSN #1344): 0.25 µg/mL
- Levofloxacin MIC fold difference, +TXA11114 ([6]; MRSN #3587): 8 fold
- Levofloxacin MIC, +TXA11114 ([6]; MRSN #3587): 1 µg/mL
- Levofloxacin MIC fold difference, +TXA11114 ([6]; MRSN #3705): 32 fold
- Levofloxacin MIC, +TXA11114 ([6]; MRSN #3705): 0.25 µg/mL
- Levofloxacin MIC fold difference, +TXA11114 ([6]; MRSN #5498): 8 fold
- Levofloxacin MIC, +TXA11114 ([6]; MRSN #5498): 4 µg/mL
- Levofloxacin MIC fold difference, +TXA11114 ([6]; MRSN #5519): 16 fold
- Levofloxacin MIC, +TXA11114 ([6]; MRSN #5519): 4 µg/mL
- Levofloxacin MIC fold difference, +TXA11114 ([6]; MRSN #5539): 2 fold
- Levofloxacin MIC, +TXA11114 ([6]; MRSN #5539): 8 µg/mL
- Levofloxacin MIC fold difference, +TXA11114 ([6]; MRSN #6220): 16 fold
- Levofloxacin MIC, +TXA11114 ([6]; MRSN #6220): 8 µg/mL
- Levofloxacin MIC fold difference, +TXA11114 ([6]; MRSN #6241): 4 fold
- Levofloxacin MIC, +TXA11114 ([6]; MRSN #6241): 2 µg/mL
- Levofloxacin MIC fold difference, +TXA11114 ([6]; MRSN #6678): 8 fold
- Levofloxacin MIC, +TXA11114 ([6]; MRSN #6678): 4 µg/mL
- Levofloxacin MIC fold difference, +TXA11114 ([6]; MRSN # 6695): 16 fold
- Levofloxacin MIC, +TXA11114 ([6]; MRSN # 6695): 0.5 µg/mL
- Levofloxacin MIC fold difference, +TXA11114 ([6]; MRSN #8130): 8 fold
- Levofloxacin MIC, +TXA11114 ([6]; MRSN #8130): 2 µg/mL
- Levofloxacin MIC fold difference, +TXA11114 ([6]; MRSN #8139): 8 fold
- Levofloxacin MIC, +TXA11114 ([6]; MRSN #8139): 1 µg/mL
- Levofloxacin MIC fold difference, +TXA11114 ([6]; MRSN #8912): 8 fold
- Levofloxacin MIC, +TXA11114 ([6]; MRSN #8912): 2 µg/mL
- Levofloxacin MIC fold difference, +TXA11114 ([6]; MRSN #8914): 8 fold
- Levofloxacin MIC, +TXA11114 ([6]; MRSN #8914): 2 µg/mL
- Levofloxacin MIC fold difference, +TXA11114 ([6]; MRSN #8915): 2 fold
- Levofloxacin MIC, +TXA11114 ([6]; MRSN #8915): 64 µg/mL
- Levofloxacin MIC fold difference, +TXA11114 ([6]; MRSN #14981): 16 fold
- Levofloxacin MIC, +TXA11114 ([6]; MRSN #14981): 1 µg/mL
- Levofloxacin MIC fold difference, +TXA11114 ([6]; MRSN #15566): 32 fold
- Levofloxacin MIC, +TXA11114 ([6]; MRSN #15566): 0.25 µg/mL
- Levofloxacin MIC fold difference, +TXA11114 ([6]; MRSN #16344): 16 fold
- Levofloxacin MIC, +TXA11114 ([6]; MRSN #16344): 0.5 µg/mL
- Levofloxacin MIC fold difference, +TXA11114 ([6]; MRSN #369569): 8 fold
- Levofloxacin MIC, +TXA11114 ([6]; MRSN #369569): 4 µg/mL
- Fold MIC reduction [LVX/EPI‐LVX] ([7]; EPI36): 1 fold
- LVX MIC (+ EPI […]) ([7]; EPI36): 0.125
- Fold MIC reduction [LVX/EPI‐LVX] ([7]; EPIR32): 1 fold
- LVX MIC (+ EPI […]) ([7]; EPIR32): 0.25
- MIC ([7]; EPIR36, listed as TXA): 200 µg/mL
- MIC ([7]; Pseudomonas aeruginosa, ATCC27853, EPIR32): > 200 µg/mL
- MIC ([7]; Pseudomonas aeruginosa, ATCC27853, EPIR36): > 200 µg/mL
- MIC ([7]; Pseudomonas aeruginosa, ATCC27853, EPIR38): 200 µg/mL
